According to patent US8574563B2 (Bristol-Myers Squibb Company, priority 2006, dated 2013):

System: HCV 1b-377-neo replicon cells
Experiment: HCV replicon assay, HCV 1b-377-neo replicon cells (1b FRET)
Type: cell-based, Hepatitis C virus genotype 1b
Conditions: Hepatitis C virus, HCV 1b-377-neo replicon cells; HCV 1b genotype; read-out: EC50 range against HCV 1b (Table 2, Range)
In short: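 Compounds tested in HCV genotype 1b-377-neo replicon cells with a FRET read-out. Cells resistant to a reference NS5A inhibitor through a Y2065H NS5A mutation were run alongside wild-type cells.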

Compound `COC(=O)N[C@@H](Cn1cccn1)C(=O)N1CCC[C@H]1c1ncc(-c2ccc(-c3ccc(-c4cnc([C@@H]5CCCN5C(=O)[C@@H](NC(=O)OC)[C@@H](C)OC)[nH]4)cc3)cc2)[nH]1` [cj-39, methyl ((1S)-2-((2S)-2-(5-(4′-(2-((2S)-1-(N-(methoxycarbonyl)-O-methyl-L-threonyl)-2-pyrrolidinyl)-1H-imidazol-5-yl)-4-biphenylyl)-1H-imidazol-2-yl)-1-pyrrolidinyl)-2-oxo-1-(1H-pyrazol-1-ylmethyl)ethyl)carbamate] has an EC50 of 0.001 to 0.999 nM.
